Entries after “also recorded” stand apart in the source; their conditions may differ.
Test system: brain tissue
Experiment: in vivo selection of brain-binding phage-displayed peptides by panning in mice
Design: species or system BALB/c mice
Conditions: phage library injected intravenously, 30 min to 1 hour circulation, brain tissue recovered, four rounds
Procedure: FIG. 1 provides the scheme for selection of tissue specific phage in vivo. In this example, candidate brain-binding peptides were selected by panning in BALB/c mice. In round one of selection, the phage library was injected intravenously. After thirty minutes of circulation, the mice were euthanized by carbon dioxide inhalation, perfused with 60 ml of ice cold PBS via the left ventricle, and brain tissue was recovered from the animals. The tissue was minced into small pieces and rinsed repeated in PBS, followed by homogenization in lysis buffer. The tissue homogenate was then incubated with fresh E coli cells and the phage present allowed to infect and lyse the bacteria. Phage were recovered by polyethylene glycol precipitation of the lysate. In subsequent rounds, the phage purified from brain tissues recovered in the previous round was injected intravenously, and tissue was recovered after thirty to sixty minutes of circulation. After the last round, the phages were plated on a lawn of bacteria and a number of pliage plaques were isolated and the DNA sequenced. Of these, a certain percentage represented the dominant selected clone.
To remove unbound, non-specific phage, from the parenchyma of the tissue, the screening protocol of Example 2 was modified. After intravenous administration, the phage were left in circulation for 1 hour (30 minutes in Example 2) to allow more phage clones with CNS binding affinity to reach their target. CNS tissue samples were then homogenized in TBS buffer instead of the lysis buffer which was used at this step previously. Tissue homogenates were pelleted by centrifugation and the supernatant was discarded. The pellet was washed two more times in TBS to remove unbound phage. The pellet was re-homogenized in lysis buffer and the remainder of the selection protocol was completed as described in Example 2. The following brain specific peptides were determined: […]

| Substance | binding to brain |
| --- | --- |
| LPLTPLP [Leu-Pro-Leu-Thr-Pro-Leu-Pro, brain specific peptide selected by in vivo phage display] | specific for binding to the brain |
| SSHTISF [Ser-Ser-His-Thr-Ile-Ser-Phe, brain specific peptide selected by in vivo phage display] | specific for binding to the brain |
| LFTPPVL [Leu-Phe-Thr-Pro-Pro-Val-Leu, brain specific peptide selected by in vivo phage display] | specific for binding to the brain |
| LPHQNNR [Leu-Pro-His-Gln-Asn-Asn-Arg, brain specific peptide selected by in vivo phage display] | specific for binding to the brain |
| GETRAPL [Gly-Glu-Thr-Arg-Ala-Pro-Leu] | binding to brain |
| QPTASLT [Gln-Pro-Thr-Ala-Ser-Leu-Thr, brain specific peptide selected by in vivo phage display] | specific for binding to the brain |

Test system: skeletal muscle
Experiment: not given
Conditions: as described in U.S. Pat. No. 6,329,501; cited from earlier work

| Substance | binding to skeletal muscle |
| --- | --- |
| GETRAPL [Gly-Glu-Thr-Arg-Ala-Pro-Leu] | capable of binding to skeletal muscle; also recorded: also binds skeletal muscle |

— US6399575B1, “Methods and compositions for targeting compounds to the central nervous system” (Auburn University, priority 1998, dated 2002)
